Common to all, as to test: relative viability (nuclei count vs DMSO), 5 days (fraction); higher = more cells survive
The subject of one assay is NCI-H2126. In outline:
(§1)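 Relative viability was taken as the ratio of nuclei in treated wells to nuclei in vehicle wells. Lung cancer cell lines in 1536-well plates received compounds by pin tool one day after seeding, either one drug alone or a fixed anchor-drug dose plus five library-drug doses (not always all listed) in √10 steps. Nuclei were counted on 4× images after 5 days of treatment, and values are medians of duplicate plates.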

The test system of the next assay is NCI-H1648. The essentials: as §1
A further assay has as its system NCI-H1623. In outline: as §1
Another assay has as its system IA-LM. In outline: as §1
The next assay relates to NCI-H1703. In outline:
as §1

For the next assay, the system named is Calu-6. The essentials: as §1
The subject of another assay is EBC-1. The essentials:
as §1

The next assay relates to NCI-H1299. In outline: as §1
The test system of the next assay is A549. In outline:
as §1

Turning to `COc1cc(N2CCC(C(N)=O)CC2)ccc1Nc1nc(N)c(Cl)c(Nc2ccccc2S(=O)(=O)C(C)C)n1` [HG-5-88-01] + COc1cccc2cc(-c3nc([C@H]4CC[C@H](C(=O)O)CC4)n4ncnc(N)c34)[nH]c12 [OSI-027] (partner 0.5 µM), the relative viability was 0.688 with NCI-H2126 (first compound 0.1265 µM); 0.71 with NCI-H2126 (first compound 0.4 µM); 0.518 in the assay on NCI-H2126 (first compound 1.265 µM); 0.432 in the assay on NCI-H2126 (first compound 4 µM); 0.257 in the assay on NCI-H1648 (first compound 0.04 µM); 0.258 in the assay on NCI-H1648 (first compound 0.1265 µM). Moreover, the relative viability was determined as 0.259 in the assay on NCI-H1648 (first compound 0.4 µM); 0.28 in the assay with NCI-H1648 (first compound 1.265 µM); 0.29 with NCI-H1648 (first compound 4 µM); 0.451 in the assay on NCI-H1623 (first compound 0.04 µM); 0.378 in the assay on NCI-H1623 (first compound 0.1265 µM); 0.408 with NCI-H1623 (first compound 0.4 µM). The molecule also had a relative viability with NCI-H1623 (first compound 4 µM) of 0.296.
In the case of `COc1cc(N2CCC(C(N)=O)CC2)ccc1Nc1nc(N)c(Cl)c(Nc2ccccc2S(=O)(=O)C(C)C)n1` [HG-5-88-01] + Cc1cc(Nc2cc(N3CCN(C)CC3)nc(Sc3ccc(NC(=O)C4CC4)cc3)n2)n[nH]1 [Tozasertib] (partner 0.1 µM), the relative viability in the assay with NCI-H2126 (first compound 0.04 µM) came to 0.937; in the assay with NCI-H2126 (first compound 0.1265 µM), 0.941; with NCI-H2126 (first compound 0.4 µM), 0.849; with NCI-H2126 (first compound 1.265 µM), 0.467; in the assay with NCI-H2126 (first compound 4 µM), 0.487; in the assay with NCI-H1648 (first compound 0.04 µM), 0.406. Further, the relative viability came out at 0.472 in the assay on NCI-H1648 (first compound 0.1265 µM); 0.43 in the assay with NCI-H1648 (first compound 0.4 µM); 0.183 in the assay on NCI-H1648 (first compound 1.265 µM); 0.329 in the assay with NCI-H1648 (first compound 4 µM); 0.512 with NCI-H1623 (first compound 0.04 µM); 0.449 in the assay with NCI-H1623 (first compound 0.1265 µM). In addition, the relative viability in the assay with NCI-H1623 (first compound 0.4 µM) came out at 0.399; with NCI-H1623 (first compound 4 µM) it was 0.377.
Turning to `Clc1ccc(Nc2nnc(Cc3ccncc3)c3ccccc23)cc1` [Vatalanib] + COc1cc2c(Oc3ccc(NC(=O)C4(C(=O)Nc5ccc(F)cc5)CC4)cc3F)ccnc2cc1OCCCN1CCOCC1 [Foretinib] (partner 0.25 µM), the relative viability with IA-LM (first compound 0.04 µM) was determined as 1.16; in the assay with IA-LM (first compound 0.1265 µM) it was 1.16; in the assay with IA-LM (first compound 0.4 µM), 1.05; in the assay with IA-LM (first compound 1.265 µM), 0.919; in the assay on IA-LM (first compound 4 µM), 1.06; in the assay on NCI-H1703 (first compound 0.04 µM) it was 0.323. In addition, the relative viability in the assay with NCI-H1703 (first compound 0.4 µM) was found to be 0.335; with NCI-H1703 (first compound 1.265 µM) it was 0.34; in the assay with NCI-H1703 (first compound 4 µM), 0.363; in the assay with Calu-6 (first compound 0.04 µM), 0.967; in the assay on Calu-6 (first compound 0.1265 µM), 0.765; with Calu-6 (first compound 0.4 µM), 0.926. The relative viability is 0.869 with Calu-6 (first compound 1.265 µM); 0.813 in the assay on Calu-6 (first compound 4 µM); 0.111 with EBC-1 (first compound 0.04 µM); 0.109 with EBC-1 (first compound 0.1265 µM); 0.0892 in the assay on EBC-1 (first compound 0.4 µM); 0.0958 in the assay with EBC-1 (first compound 1.265 µM). For the same molecule, the relative viability with EBC-1 (first compound 4 µM) was 0.118; in the assay on NCI-H2126 (first compound 0.04 µM), 1.15; in the assay with NCI-H2126 (first compound 0.1265 µM), 1.23; with NCI-H2126 (first compound 0.4 µM), 1.25; with NCI-H2126 (first compound 1.265 µM) it was 1.1; in the assay on NCI-H2126 (first compound 4 µM), 1.12. In addition, the relative viability in the assay with NCI-H1299 (first compound 0.04 µM) was 1.1; in the assay with NCI-H1299 (first compound 0.1265 µM), 1.07; in the assay with NCI-H1299 (first compound 0.4 µM) it was 1.15; in the assay with NCI-H1299 (first compound 1.265 µM), 1.11; in the assay on NCI-H1299 (first compound 4 µM), 1.11; in the assay with A549 (first compound 0.04 µM), 1.06. Besides, the relative viability with A549 (first compound 0.1265 µM) was determined as 0.909; in the assay with A549 (first compound 0.4 µM), 1.01; with A549 (first compound 1.265 µM), 0.881; in the assay on A549 (first compound 4 µM), 0.948; with NCI-H1623 (first compound 0.04 µM) it was 0.816; in the assay with NCI-H1623 (first compound 0.1265 µM) it was 0.861. In addition, the results for the relative viability with NCI-H1623 (first compound 0.4 µM), in the assay with NCI-H1623 (first compound 1.265 µM) and in the assay on NCI-H1623 (first compound 4 µM) were 0.794, 0.854 and 0.783, respectively.
With `Clc1ccc(Nc2nnc(Cc3ccncc3)c3ccccc23)cc1` [Vatalanib] + COc1cccc2cc(-c3nc([C@H]4CC[C@H](C(=O)O)CC4)n4ncnc(N)c34)[nH]c12 [OSI-027] (partner 0.5 µM), the relative viability in the assay on NCI-H2126 (first compound 0.04 µM) came out at 0.692; in the assay on NCI-H2126 (first compound 0.1265 µM), 0.693; in the assay on NCI-H2126 (first compound 0.4 µM), 0.797; in the assay on NCI-H2126 (first compound 1.265 µM), 0.62; with NCI-H2126 (first compound 4 µM), 0.625; in the assay on NCI-H1648 (first compound 0.04 µM), 0.258. Also, the relative viability in the assay on NCI-H1648 (first compound 0.1265 µM) came to 0.265; with NCI-H1648 (first compound 0.4 µM), 0.299; in the assay on NCI-H1648 (first compound 1.265 µM) it was 0.238; in the assay on NCI-H1648 (first compound 4 µM), 0.255; in the assay on NCI-H1623 (first compound 0.04 µM) it was 0.39; in the assay with NCI-H1623 (first compound 0.1265 µM), 0.618. Further, the values for the relative viability in the assay with NCI-H1623 (first compound 0.4 µM), with NCI-H1623 (first compound 1.265 µM) and with NCI-H1623 (first compound 4 µM) were 0.446, 0.418 and 0.386, respectively.
As to `Clc1ccc(Nc2nnc(Cc3ccncc3)c3ccccc23)cc1` [Vatalanib] + Cc1cc(Nc2cc(N3CCN(C)CC3)nc(Sc3ccc(NC(=O)C4CC4)cc3)n2)n[nH]1 [Tozasertib] (partner 0.1 µM), the relative viability in the assay on NCI-H2126 (first compound 0.04 µM) turned out to be 0.808; in the assay on NCI-H2126 (first compound 0.1265 µM), 0.769; in the assay on NCI-H2126 (first compound 0.4 µM), 0.829; in the assay with NCI-H2126 (first compound 1.265 µM), 0.805; in the assay on NCI-H2126 (first compound 4 µM), 0.82; in the assay on NCI-H1648 (first compound 0.04 µM), 0.581. Also, the relative viability was determined as 0.442 in the assay on NCI-H1648 (first compound 0.1265 µM); 0.483 with NCI-H1648 (first compound 0.4 µM); 0.523 in the assay on NCI-H1648 (first compound 1.265 µM); 0.419 with NCI-H1648 (first compound 4 µM); 0.415 with NCI-H1623 (first compound 0.04 µM); 0.435 with NCI-H1623 (first compound 0.1265 µM). Besides, the relative viability in the assay on NCI-H1623 (first compound 0.4 µM) worked out at 0.455; in the assay with NCI-H1623 (first compound 1.265 µM) it was 0.374; in the assay on NCI-H1623 (first compound 4 µM), 0.393.

Values taken from the supplement of paper PMC10307832.
